This is an account of results in US7459477B2, “Substituted N-phenyl-phenoxy nicotinic acid-(thio)amides and their use as herbicides” (Nihon Nohyaku, Co., Ltd., priority 2001, dated 2008).

Molecules are shown by their SMILES.

Type in all cases: in vivo
Data set [1] deals with powdery mildew fungus (Erysiphe graminis hordei). As to the kind of experiment: Controlling effect on barley powdery mildew (Test Example 5). As to conditions: 200 ppm; potted barley at 1 leaf stage sprayed one day after inoculation; one week after the inoculation; 25° C. As to the method: Controlling Effect on Barley Powdery Mildew Potted barley plants at the 1 leaf stage were inoculated with spores of powdery mildew fungus (Erysiphe graminis hordei) by sprinkling. After one day, they were sprayed with a liquid chemical prepared by diluting a preparation containing each compound listed in Table 1, Table 3 or Table 4 as an active ingredient to adjust the concentration to 200 ppm. Then, they were allowed to stand in a room thermostated at 25° C. One week after the inoculation, the lesion area of each leaf was measured and then compared with that on the untreated plot, whereby the controlling effect was judged according to the following criterion. Criterion for Judgment: • A: control efficacy 100 to 95% • B: control efficacy 94 to 80% • C: control efficacy 79 to 60% • D: control efficacy 59 to 0%

Data set [2] concerns Diamond Back Moth (Plutella xylostella). As to the kind of experiment: Insecticidal effect on diamond back moth (Test Example 1). As to conditions: 500 ppm; Chinese cabbage seedling with eggs immersed about 30 seconds; six days after the immersion; 25° C. The source says: Insecticidal Effect on Diamond Back Moth (Plutella xylostella)
Adult diamond back moths were released and allowed to oviposit on a Chinese cabbage seedling. Two days after the release, the seedling having the eggs deposited thereon was immersed for about 30 seconds in a liquid chemical prepared by diluting a preparation containing each compound listed in Tables 1 to 4 as an active ingredient to adjust the concentration to 500 ppm. After air-dryness, it was allowed to stand in a room thermostatted at 25° C. Six days after the immersion, the hatched insects were counted. The mortality was calculated according to the following equation and the insecticidal effect was judged according to the criterion shown below. The test was carried out with triplicate groups of 10 insects.

The test system of data set [3] is Two-Spotted Spider Mite (Tetranychus Urticae). As to the kind of experiment: Acaricidal effect on two-spotted spider mite (Test Example 3). The settings on record: 500 ppm; kidney bean leaf disc with female adults sprayed; two days after the treatment; 25° C. As for the experimental part:
Acaricidal Effect on Two-Spotted Spider Mite (Tetranychus Urticae)
A leaf disc with a diameter of 2 cm was made of a kidney bean leaf, placed on wet filter paper, inoculated with female adult two-spotted spider mites, and then uniformly sprayed, on a turntable, with 50 ml of a liquid chemical prepared by diluting a preparation containing each compound listed in Tables 1 to 4 as an active ingredient to adjust the concentration to 500 ppm. After the spraying, the leaf disc was allowed to stand in a room thermostated at 25° C. Two days after the treatment with the preparation, the dead insects were counted and the acaricidal effect was judged according to the criterion shown in Test Example 1. The test was carried out with two replications of 10 insects.

For data set [4], the system named is Smaller Tea Tortrix (Adxophyes sp.). Briefly: Insecticidal effect on smaller tea tortrix (Test Example 2). As to conditions: 500 ppm; tea leaves immersed about 30 seconds, inoculated with larvae; eight days after the inoculation; 25° C., humidity 70%. As to the method:
Insecticidal Effect on Smaller Tea Tortrix (Adxophyes sp.)
Tea leaves were immersed for about 30 seconds in a liquid chemical prepared by diluting a preparation containing each compound listed in Tables 1 to 4 as an active ingredient to adjust the concentration to 500 ppm. After air-dryness, the tea leaves were placed in a plastic Petri dish with a diameter of 9 cm and inoculated with larvae of smaller tea tortrix, after which the dish was allowed to stand in a room thermostatted at 25° C. and having a humidity of 70%. Eight days after the inoculation, the dead and alive were counted. The mortality was calculated according to the following equation and the insecticidal effect was judged according to the criterion shown in Test Example 1. The test was carried out with triplicate groups of 10 insects.

Data set [5] relates to Green Peach Aphid (Myzus Persicae). As to the kind of experiment: Insecticidal effect on green peach aphid (Test Example 4). As to conditions: 500 ppm; stems and leaves of Chinese cabbage sprayed; six days after the spraying; greenhouse. The source says: Insecticidal Effect on Green Peach Aphid (Myzus Persicae)
A Chinese cabbage plant was planted in each of plastic pots with a diameter of 8 cm and a height of 8 cm, and green peach aphids were propagated on the plant. Then, the stems and leaves were sufficiently sprayed with a liquid chemical prepared by diluting a preparation containing each compound listed in Tables 1 to 4 as an active ingredient to adjust the concentration to 500 ppm. After air-drying, the pots were allowed to stand in a greenhouse. Six days after the spraying, green peach aphids parasitic on each Chinese cabbage plant were counted and the control efficacy was calculated, whereby the […] effect was judged according to the criterion shown below. Control efficacy (%)=100−[(T×Ca)/(Ta×C)]×100 • Ta: number of parasites before spraying in treated group, • T: number of parasites after spraying in treated group,
Ca: number of parasites before spraying in untreated group, • […]: number of parasites after spraying in untreated group. Criterion for Judgment: • A: control efficacy 100% • B: control efficacy 99 to 90% • C: control efficacy 89 to 80% • D: control efficacy 79 to 50%

Turning to `CCCc1nn(C)c(Cl)c1C(=O)Nc1ccc(C(C(F)(F)F)C(F)(F)F)cc1C(C)CC(C)C` (stereo not drawn) [1-133], the “controlling effect (control efficacy rating, lesion area)” value (from here on “controlling effect”) in data set [1] is recorded as “B or higher”. Also, the “insecticidal effect (mortality rating)” value in data set [2] is on record as “B or higher”. On to `CCn1nc(C)c(C(=O)Nc2ccc(C(O)(C(F)(F)F)C(F)(F)F)cc2C(C)CC(C)C)c1Br` (stereo not drawn) [1-83], for which, in data set [1], the “controlling effect” value was “B or higher”. Turning to `Cc1cc(C(=O)Nc2ccc(C(C(F)(F)F)C(F)(F)F)cc2C(C)CC(C)C)n(C)n1` (stereo not drawn) [4-3], in data set [1], the “controlling effect” value was “B or higher”. Moreover, the “acaricidal effect (mortality rating)” value in data set [3] is listed as “B or higher”. Turning to `Cc1c(C(=O)Nc2ccc(C(C(F)(F)F)C(F)(F)F)cc2C(C)CC(C)C)cnn1C` (stereo not drawn) [1-45], the “controlling effect” value in data set [1] is listed as “B or higher”. As for `Cc1c(C(=O)Nc2ccc(C(C(F)(F)F)C(F)(F)F)cc2C(C)CC(C)C)c(Cl)nn1C` (stereo not drawn) [1-60], the “insecticidal effect (mortality rating)” value in data set [4] is “B or higher”. On to `CC(C)CC(C)c1cc(C(C(F)(F)F)C(F)(F)F)ccc1NC(=O)c1cnn(C)c1[S+](C)[O-]` (stereo not drawn) [1-47], for which the “controlling effect” value in data set [1] is given as “B or higher”. Consider `Cn1cc(C(=O)Nc2ccc(C(F)(C(F)(F)F)C(F)(F)F)c3c2CCCC3)c(C(F)(F)F)n1` [1-12], for which, in data set [1], the “controlling effect” value is reported as “B or higher”. Consider `COC(c1ccc(NC(=O)c2sccc2I)c(C(C)CC(C)C)c1)(C(F)(F)F)C(F)(F)F` (stereo not drawn) [3-31], for which, in data set [4], the “insecticidal effect (mortality rating)” value was “B or higher”. In data set [1], the “controlling effect” value is “B or higher”.

On to `CC(C)CC(C)c1cc(C(C(F)(F)F)C(F)(F)F)ccc1NC(=O)c1snnc1C(F)(F)F` (stereo not drawn) [3-12], for which the “insecticidal effect (mortality rating)” value in data set [4] and in data set [2] was “B or higher” each time.

On to `CCCC(C)c1cc(C(OC)(C(F)(F)F)C(F)(F)F)ccc1NC(=O)c1c(C)nn(C)c1Cl` (stereo not drawn) [1-23], for which the “controlling effect” value in data set [1] was “B or higher”. Besides, in data set [3], the “acaricidal effect (mortality rating)” value was “B or higher”. For the compound `CC(C)CC(C)c1cc(C(C(F)(F)F)C(F)(F)F)ccc1NC(=O)c1c(C(F)(F)F)nn(C)c1Cl` (stereo not drawn) [Compound No. 1-103, N-{2-(1,3-dimethylbutyl)-4-[2,2,2-trifluoro-1-(trifluoromethyl)ethyl]phenyl}-5-chloro-1-methyl-3-trifluoromethylpyrazole-4-carboxamide], the “insecticidal effect (mortality rating)” value in data set [4] and in data set [2] was “B or higher” each time. Moreover, the “acaricidal effect (mortality rating)” value in data set [3] is on record as “B or higher”. On to `CCn1ncc(C(=O)Nc2ccc(C(C(F)(F)F)C(F)(F)F)cc2C(C)CC(C)C)c1Br` (stereo not drawn) [1-54], for which the “controlling effect” value in data set [1] was “B or higher”. Also, the “acaricidal effect (mortality rating)” value in data set [3] is recorded as “B or higher”. On to `CC(C)CC(C)c1cc(C(C(F)(F)F)C(F)(F)F)ccc1NC(=O)c1sccc1Cl` (stereo not drawn) [3-28], for which, in data set [4], the “insecticidal effect (mortality rating)” value is “B or higher”.

In the case of `CC(C)CC(C)c1cc(C(C(F)(F)F)C(F)(F)F)ccc1NC(=O)c1cnn(CCF)c1Cl` (stereo not drawn) [1-52], the “insecticidal effect (mortality rating)” value in data set [4] and in data set [2] was “B or higher” each time. The “controlling effect” value in data set [1] is on record as “B or higher”. For the same compound, the “acaricidal effect (mortality rating)” value in data set [3] is listed as “B or higher”. Also, the control efficacy rating entry in data set [5] is “B or higher”. As to `CC(C)c1cc(C(F)(C(F)(F)F)C(F)(F)F)ccc1NC(=O)c1cn(C)nc1C(F)(F)F` [1-5], the “controlling effect” value in data set [1] is “B or higher”.

`CC(C)CC(C)c1cc(C(C(F)(F)F)C(F)(F)F)ccc1NC(=O)c1sccc1I` (stereo not drawn) [3-30]: in data set [4], the “insecticidal effect (mortality rating)” value was “B or higher”. Moreover, in data set [1], the “controlling effect” value is recorded as “B or higher”. With `CC(C)CC(C)c1cc(C(C(F)(F)F)C(F)(F)F)ccc1NC(=O)c1cn(C)nc1C(F)(F)F` (stereo not drawn) [1-30], the “controlling effect” value in data set [1] is “B or higher”.

For the compound `Cc1nn(C)c(Cl)c1C(=O)Nc1ccc(C(C(F)(F)F)C(F)(F)F)cc1C(C)CCC(C)C` (stereo not drawn) [Compound No. 1-146, N-{2-(1,4-dimethylpentyl)-4-[2,2,2-trifluoro-1-(trifluoromethyl)ethyl]phenyl}-5-chloro-1,3-dimethylpyrazole-4-carboxamide], the “insecticidal effect (mortality rating)” value in data set [2] is recorded as “B or higher”. The “acaricidal effect (mortality rating)” value in data set [3] is reported as “B or higher”. The control efficacy rating result in data set [5] is “B or higher”. Turning to `Cc1nn(C)c(F)c1C(=O)Nc1ccc(C(C(F)(F)F)C(F)(F)F)cc1C(C)CC(C)C` (stereo not drawn) [1-65], the “insecticidal effect (mortality rating)” value in data set [2] is given as “B or higher”. In data set [3], the “acaricidal effect (mortality rating)” value was “B or higher”. In addition, the control efficacy rating entry in data set [5] is on record as “B or higher”.
